From patent US20040106877A1, “Method and device for determining state of skin surface” (priority 2000, published 2004) come the findings set out here.

Like-named read-outs stand apart in the source and are kept apart here. No end group written: not given here.

Assay type in all cases: cell-based
For test [1], the system named is skin sections of a hairless mouse. As to the kind of experiment: Skin surface potential difference relative to culture solution, capsaicin coated on the skin surface. The following applies: FIG. 6. From the text: In a second method, upon measuring the skin surface condition of the first method, stimulation is imparted further to the skin model comprising a skin section and a culture solution to measure aforementioned potential difference. This potential difference changes as stimulation is imparted. This change means that a stream of ions has occurred in the epidermis. The direction of a stream of ions differs depending on stimulation. When there is a change compared to the value of untreated skin, it is interpreted that stimulation producing mobility of ions is imparted to the epidermis. The degree of skin stimulation is measured from the changed value. Upon imparting stimulation, the place of stimulation may be on skin surface or culture solution. In the case of skin surface, examples of methods for imparting stimulation include coating skin with a stimulating substance and physical stimulation. Also, in the case of culture solution, the method used is addition of stimulating substances. Examples of these stimulating substances include neuropeptide, histamine, surfactant, organic acid, and capsaicin. […] In addition, examples of said physical stimulation include barrier destruction by a cellophane adhesive tape and the like.

For test [2] the test system is unchanged. As to the kind of experiment: Skin surface potential difference relative to culture solution, substance P (SP) stimulation. The conditions noted are these: FIG. 3.
Test [3] has the same test system.

Turning to `Oc1cc2c(cc1O)CN(C(=S)NCCc1ccc(Cl)cc1)CCC2` [capsazepine], in test [1] (drug coated on skin surface after capsaicin), the “inhibition of the capsaicin-induced change in potential difference” value is recorded as “the range of change in potential difference is reduced”.

Regarding `COc1cc(CNC(=O)CCCC/C=C/C(C)C)ccc1O` [capsaicin], the “time of maximum change in potential difference after coating” value in test [1] (capsaicin coated on skin surface) came out at 0.5 h. The “change in potential difference of the skin surface relative to culture solution after stimulating substance” value in test [1] (capsaicin coated on skin surface, compared with non-treated skin surface (control), average of five measurements) is “a rapid change in potential difference”.

Take “[D-Arg1, D-Trp7, 9, Leu11]-SubstanceP [SP antagonist]”: the “inhibition of the SP-induced change in potential difference” value in test [2] (drug added to culture solution before adding SP, observed for 2 hours) was “no rapid and significant change in potential difference is produced”.

On to `Nc1ccncc1` [AP, aminopyridine], for which the “inhibition of the tape-stripping-induced change in potential difference” value in test [3] (drug added to culture solution after tape stripping, average of five measurements, FIG. 4, FIG. 5) is “reduces the change in potential difference”.

On to “substance P (RPKPQQFFGLM; ends and bridges not checked; UniProt P20366 58-68, looked up) [SP, neuropeptide used as a stimulating substance]”, for which, in test [2] (SP added to culture solution), the “time after addition when the potential difference returns to a value close to control” value came to 2 h and the “time of peak of the potential difference change after addition” value was determined as 1 h. For the same molecule, in test [2] (SP added to culture solution, compared with non-treated skin surface (control), average of five measurements), the “change in potential difference of the skin surface relative to culture solution after stimulating substance” value is “a rapid change in a potential difference is produced”.

For the molecule `NC1=N[C@H](O)[C@H]2[C@H]3O[C@]4(O)O[C@@H]([C@@H](O)[C@@]2(N1)[C@@H]4O)[C@]3(O)CO` [TTX, tetrodotoxin], the “inhibition of the tape-stripping-induced change in potential difference” value in test [3] is “does not inhibit the change in a potential difference”.
